Measured values as given in paper PMC7795354, “Development of Radiogallium-Labeled Peptides for Platelet-Derived Growth Factor Receptor β (PDGFRβ) Imaging: Influence of Different Linkers” (Molecules, 2020).
Several values for one entry are separate records, joined by “and”; a condition that tells them apart may be missing. Identical values can stand only once. Like-named read-outs stand apart in the source and are kept apart here. Where a SMILES comes first, the peptide text is derived from it. The star is where a group is joined. DOTA = O=C(O)CN1CCN(CC(=O)O)CCN(CC(=O)*)CCN(CC(=O)O)CC1; AEEA = NCCOCCOCC(=O)O

Legend:
[1] = Biodistribution in BxPC3-luc tumor-bearing mice; format: in vivo; settings: female, BALB/c nu/nu, mouse, stomach, iv, 74 kBq, total radioactivity; 1 h post-injection
[2] = Octanol-water partition coefficient (log P), shake-flask; settings: n-octanol/PBS, pH 7.4
Description: The octanol-water partition coefficients for radiotracers were determined via the assessment of their distribution in n-octanol and PBS (pH 7.4) using shake-flask method as described previously [48]. Radioactivity of each layer was measured using auto well gamma counter (n = 4).

[3] = In vitro stability in murine plasma; settings: 37 °C
Description: (§3) Briefly, the solution of radiotracers (37 kBq/well, 50 µL) in a sealed tube containing 0.1 M PBS pH 7.4 (450 µL) was incubated at 37 °C for 24 h. At 3 and 24 h after incubation, the purity of radiotracers was analyzed by RP-HPLC. Meanwhile, for stability assay in murine plasma, radiotracers were mixed in murine plasma at a ratio of 1:10. After incubation at 37 °C for 10 min and 1 h, an equivalent amount of ice-cold acetonitrile was added. After centrifugation at 1000× g at 4 °C for 10 min, the supernatant was filtered through a 0.45-µm filter followed by analyzing using RP-HPLC as described above. Then, the radiochemical purities were determined.

[4] = Biodistribution in BxPC3-luc tumor-bearing mice; format: in vivo, BALB/c nu/nu mice; settings: female, BALB/c nu/nu, iv, total radioactivity
Description: (§1) All animal handling procedures were approved by the Kanazawa University Animal Care Committee. Experiments with animals were conducted in accordance with the Guidelines for the Care and Use of Laboratory Animals of Kanazawa University. The animals were housed with free access to food and water at 23 °C with a 12 h light/dark schedule. Four-week-old female BALB/c nu/nu mice (12–17 g) were purchased from Japan SLC Inc. (Hamamatsu, Japan). The tumor-bearing model was prepared by subcutaneous inoculation of 1 × 10^7 BxPC3-luc cells into left shoulder of female BALB/c nu/nu mice. The biodistribution experiment was performed approximately 4–5 weeks post-inoculation.
(§2) A saline solution of [^67Ga]27 or [^67Ga]28 (74 kBq, 100 µL) was injected intravenously into the tail vein of the mice. The mice were sacrificed at 10 min post-injection for [^67Ga]27 and 1 h post-injection for [^67Ga]27 or [^67Ga]28. For in vivo blocking studies, 100 μL of a mixed saline solution of [^67Ga]27 (74 kBq) and IPLPPPRRPFFK peptide (1 mg/mouse) was injected via tile vein into the tumor-bearing mice. The mice were sacrificed at 1 h post-injection. Tissues of interest were removed and weighed. The radioactivity of the tissues was determined using an auto well gamma counter, and counts were corrected for background radiation and physical decay during counting. The data were expressed as percent injected dose per gram tissue (%ID/g).

[5] = test system: BxPC3-luc tumor-bearing mice; assay: Biodistribution in BxPC3-luc tumor-bearing mice; format: in vivo, BALB/c nu/nu mice
Description: as §1, §2

[6] = In vitro stability in PBS pH 7.4; settings: 37 °C, 0.1 M PBS pH 7.4
Description: as §3

In the case of `CC[C@H](C)[C@H](NC(=O)COCCOCCNC(=O)CN1CCN(CC(=O)O)CCN(CC(=O)O)CCN(CC(=O)O)CC1)C(=O)N1CCC[C@H]1C(=O)N[C@@H](CC(C)C)C(=O)N1CCC[C@H]1C(=O)N1CCC[C@H]1C(=O)N1CCC[C@H]1C(=O)N[C@@H](CCCNC(=N)N)C(=O)N[C@@H](CCCNC(=N)N)C(=O)N1CCC[C@H]1C(=O)N[C@@H](Cc1ccccc1)C(=O)N[C@@H](Cc1ccccc1)C(=O)N[C@@H](CCCCN)C(=O)O` [[^67Ga]27, [^67Ga]Ga-DOTA-EG2-IPLPPPRRPFFK, metal not drawn] ({DOTA-AEEA}-IPLPPPRRPFFK-OH), the tissue uptake dose at 1 h [1] is reported as 0.06 %ID, the logP [2] is reported as < -4 and the “In vitro stability in murine plasma, percentage of remained intact radiotracer” value ([3]; 1 h, 60 min) is reported as 75.9 ± 1.2%. The remaining at 10 min ([3]; mouse, plasma, In vitro stability in murine plasma, percentage of remained intact radiotracer, 10 min) was 84.4 ± 2%, the remaining at 1 h ([3]; mouse, plasma, In vitro stability in murine plasma, percentage of remained intact radiotracer, 1 h) was > 75% and the tissue uptake at 1 h ([4]; blood, 1 h, blocking: co-injection of IPLPPPRRPFFK 1 mg/mouse, read-out: Biodistribution, Blood) was 0.93 %ID/g. For the same compound, the tissue uptake at 1 h ([4]; bone, 1 h, blocking: co-injection of IPLPPPRRPFFK 1 mg/mouse, read-out: Biodistribution, Bone) was 0.21 %ID/g, the tissue uptake at 1 h ([4]; brain, 1 h, blocking: co-injection of IPLPPPRRPFFK 1 mg/mouse, read-out: Biodistribution, Brain) was 0.02 %ID/g and the tissue uptake at 1 h ([4]; heart, 1 h, blocking: co-injection of IPLPPPRRPFFK 1 mg/mouse, read-out: Biodistribution, Heart) was 0.28 %ID/g. For the same compound, the tissue uptake at 1 h ([4]; 1 h, blocking: co-injection of IPLPPPRRPFFK 1 mg/mouse, BxPC3-luc tumor, read-out: Biodistribution, Tumor) was 0.96 %ID/g, the tissue uptake at 1 h ([4]; kidney, 1 h, blocking: co-injection of IPLPPPRRPFFK 1 mg/mouse, read-out: Biodistribution, Kidney) was 12.2 %ID/g and the tissue uptake at 1 h ([4]; large intestine, 1 h, blocking: co-injection of IPLPPPRRPFFK 1 mg/mouse, read-out: Biodistribution, Large intestine) was 0.25 %ID/g. It also gave a tissue uptake at 1 h ([4]; liver, 1 h, blocking: co-injection of IPLPPPRRPFFK 1 mg/mouse, read-out: Biodistribution, Liver) of 0.27 %ID/g, a tissue uptake at 1 h ([4]; lung, 1 h, blocking: co-injection of IPLPPPRRPFFK 1 mg/mouse, read-out: Biodistribution, Lung) of 0.66 %ID/g and a tissue uptake at 10 min ([4]; mouse, blood, 74 kBq, 10 min post-injection, i.v., read-out: Biodistribution, Blood) of 3.87 %ID/g. It also gave a tissue uptake at 1 h ([4]; mouse, blood, 74 kBq, 1 h post-injection, i.v., read-out: Biodistribution, Blood) of 0.15 %ID/g, a tissue uptake at 10 min ([4]; mouse, bone, 74 kBq, 10 min post-injection, i.v., read-out: Biodistribution, Bone) of 1.62 %ID/g and a tissue uptake at 1 h ([4]; mouse, bone, 74 kBq, 1 h post-injection, i.v., read-out: Biodistribution, Bone) of 0.24 %ID/g. For the same compound, the tissue uptake at 10 min ([4]; mouse, brain, 74 kBq, 10 min post-injection, i.v., read-out: Biodistribution, Brain) was 0.13 %ID/g, the tissue uptake at 1 h ([4]; mouse, brain, 74 kBq, 1 h post-injection, i.v., read-out: Biodistribution, Brain) was 0.01 %ID/g and the tissue uptake at 10 min ([4]; mouse, heart, 74 kBq, 10 min post-injection, i.v., read-out: Biodistribution, Heart) was 1.47 %ID/g. It also gave a tissue uptake at 1 h ([4]; mouse, heart, 74 kBq, 1 h post-injection, i.v., read-out: Biodistribution, Heart) of 0.07 %ID/g, a tissue uptake at 10 min ([4]; mouse, 74 kBq, 10 min post-injection, i.v., BxPC3-luc tumor, read-out: Biodistribution, Tumor) of 3.11 %ID/g and a tissue uptake at 1 h ([4]; mouse, 74 kBq, 1 h post-injection, i.v., BxPC3-luc tumor, read-out: Biodistribution, Tumor) of 0.39 %ID/g. The tissue uptake at 10 min ([4]; mouse, kidney, 74 kBq, 10 min post-injection, i.v., read-out: Biodistribution, Kidney) was 13.9 %ID/g, the tissue uptake at 1 h ([4]; mouse, kidney, 74 kBq, 1 h post-injection, i.v., read-out: Biodistribution, Kidney) was 3.07 %ID/g and the tissue uptake at 10 min ([4]; mouse, large intestine, 74 kBq, 10 min post-injection, i.v., read-out: Biodistribution, Large intestine) was 0.87 %ID/g. It also gave a tissue uptake at 1 h ([4]; mouse, large intestine, 74 kBq, 1 h post-injection, i.v., read-out: Biodistribution, Large intestine) of 0.13 %ID/g, a tissue uptake at 10 min ([4]; mouse, liver, 74 kBq, 10 min post-injection, i.v., read-out: Biodistribution, Liver) of 0.9 %ID/g and a tissue uptake at 1 h ([4]; mouse, liver, 74 kBq, 1 h post-injection, i.v., read-out: Biodistribution, Liver) of 0.22 %ID/g. It also gave a tissue uptake at 10 min ([4]; mouse, lung, 74 kBq, 10 min post-injection, i.v., read-out: Biodistribution, Lung) of 3.7 %ID/g, a tissue uptake at 1 h ([4]; mouse, lung, 74 kBq, 1 h post-injection, i.v., read-out: Biodistribution, Lung) of 0.46 %ID/g and a tissue uptake at 10 min ([4]; mouse, muscle, 74 kBq, 10 min post-injection, i.v., read-out: Biodistribution, Muscle) of 0.86 %ID/g. The tissue uptake at 1 h ([4]; mouse, muscle, 74 kBq, 1 h post-injection, i.v., read-out: Biodistribution, Muscle) was 0.07 %ID/g, the tissue uptake at 10 min ([4]; mouse, pancreas, 74 kBq, 10 min post-injection, i.v., read-out: Biodistribution, Pancreas) was 0.89 %ID/g and the tissue uptake at 1 h ([4]; mouse, pancreas, 74 kBq, 1 h post-injection, i.v., read-out: Biodistribution, Pancreas) was 0.13 %ID/g. For the same compound, the tissue uptake at 10 min ([4]; mouse, small intestine, 74 kBq, 10 min post-injection, i.v., read-out: Biodistribution, Small intestine) was 1.16 %ID/g, the tissue uptake at 1 h ([4]; mouse, small intestine, 74 kBq, 1 h post-injection, i.v., read-out: Biodistribution, Small intestine) was 0.63 %ID/g and the tissue uptake at 10 min ([4]; mouse, spleen, 74 kBq, 10 min post-injection, i.v., read-out: Biodistribution, Spleen) was 0.99 %ID/g. For the same compound, the tissue uptake at 1 h ([4]; mouse, spleen, 74 kBq, 1 h post-injection, i.v., read-out: Biodistribution, Spleen) was 0.13 %ID/g, the tissue uptake dose at 10 min ([4]; mouse, stomach, 74 kBq, 10 min post-injection) was 0.19 %ID and the tissue to tissue ratio at 10 min ([4]; mouse, tumor/blood, 74 kBq, 10 min post-injection) was 0.81. It also gave a tissue to tissue ratio at 1 h ([4]; mouse, tumor/blood, 74 kBq, 1 h post-injection) of 2.61, a tissue uptake at 1 h ([4]; muscle, 1 h, blocking: co-injection of IPLPPPRRPFFK 1 mg/mouse, read-out: Biodistribution, Muscle) of 0.22 %ID/g and a tissue uptake at 1 h ([4]; pancreas, 1 h, blocking: co-injection of IPLPPPRRPFFK 1 mg/mouse, read-out: Biodistribution, Pancreas) of 0.21 %ID/g. It also gave a tissue uptake at 1 h ([4]; small intestine, 1 h, blocking: co-injection of IPLPPPRRPFFK 1 mg/mouse, read-out: Biodistribution, Small intestine) of 0.66 %ID/g, a tissue uptake at 1 h ([4]; spleen, 1 h, blocking: co-injection of IPLPPPRRPFFK 1 mg/mouse, read-out: Biodistribution, Spleen) of 0.29 %ID/g and a tissue uptake dose at 1 h ([4]; stomach, 1 h, blocking: co-injection of IPLPPPRRPFFK 1 mg/mouse) of 0.05 %ID. For the same compound, the tissue to tissue ratio at 1 h ([4]; tumor/blood, 1 h, blocking: co-injection of IPLPPPRRPFFK 1 mg/mouse) was 1.19, the Tumor/Blood ratio ([5]; 1 h, blocking: co-injection of IPLPPPRRPFFK 1 mg/mouse) was “significantly decreased” and the Tumor/Blood ratio ([5]; 1 h post-injection, i.v.) was 2.61 and 2.61 ± 0.75. The “In vitro stability in PBS pH 7.4, percentage of remained intact radiotracer” value ([6]; 3 h) was 96.9 ± 0.5% and the “In vitro stability in PBS pH 7.4, percentage of remained intact radiotracer” value ([6]; 24 h) was 95.6 ± 0.4%.
